Measured values reported in PMC8962293, “Synthesis, Structure, and Antiproliferative Action of 2-Pyridyl Urea-Based Cu(II) Complexes” (Biomedicines, 2022).

Tests used:
MTT assay on A549 cells = type: cell-based, human; details: human, A549 lung carcinoma cells, 72 h, read-out: Cell Viability, %; for viability at 72 h, 10 µM: A549, 10 µM; for viability at 72 h, 100 µM: A549, 100 µM
Experimental: (§1) A549, NCI-H460, NCI-H1975 lung cancer cells and WI-26 VA4 lung epithelial-like cells were purchased from the ATCC. A549 cells were maintained in F12-K (Corning, NY, USA) supplemented with 10% fetal bovine serum (Fetal Bovine Serum, qualified, Australia; Gibco, Loughborough, UK), penicillin (100 UI mL^−1), streptomycin (100 µg mL^−1), and GlutaMax (1.9 mM, Gibco, UK). NCI-H460 and NCI-H1975 cells were maintained in RPMI-1640 (ATCC modification) media (Gibco, Loughborough, UK) supplemented with 10% fetal bovine serum (Fetal Bovine Serum, qualified, Australia; Gibco, Loughborough, UK), penicillin (100 UI mL^−1), streptomycin (100 µg mL^−1), and GlutaMax (2 mM, Gibco, UK). WI-26 VA4 cells were maintained in Advanced MEM (Gibco, Loughborough, UK) supplemented with 5% fetal bovine serum (Fetal Bovine Serum, qualified, Australia, Gibco, UK), penicillin (100 UI mL^−1), streptomycin (100 µg mL^−1), and GlutaMax (1.87 mM, Gibco, Loughborough, UK). All cells line cultivation under a humidified atmosphere of 95% air/5% CO2 at 37 °C. Subconfluent monolayers, in the log growth phase, were harvested by a brief treatment with TrypLE Express solution (Gibco, Loughborough, UK) in phosphate buffered saline (PBS, Capricorn Scientific, Germany) and washed three times in serum-free PBS. The number of viable cells was determined by trypan blue exclusion.
(§2) The effects of the synthesized compounds on cell viability were determined using the MTT colorimetric test. All examined cells were diluted with the growth medium to 3.5 × 10^4 cells per mL and the aliquots (7 × 10^3 cells per 200 μL) were placed in individual wells in 96-well plates (Eppendorf, Hamburg, Germany) and incubated for 24 h. The next day, the cells were treated with synthesized compounds separately in concentration 10 and 100 μM (or 200.0 μM concentration and diluted at various concentrations for determination of IC50) and incubated for 72 h at 37 °C in 5% CO2 atmosphere. Each compound was tested in triplicate. After incubation, the cells were treated with 40 μL MTT solution (3-(4,5-dimethylthiazol-2-yl)-2,5-diphenyltetrazolium bromide, 5 mg mL^−1 in PBS) and incubated for 4 h. After additional 4-h incubation, the medium with MTT was removed and DMSO (150 μL) was added to dissolve the formazan crystals. The plates were shaken for 10 min. The optical density of each well was determined at 560 nm using GloMax Multi+ (Promega, Madison, WI, USA) microplate reader. Each of the tested compounds was evaluated for cytotoxicity in three separate experiments. All stock solutions for biological evaluations were prepared via dissolving synthesized compounds in DMSO.

[1] = tested on: NCI-H460 non-small cell lung carcinoma cells; assay: MTT assay on NCI-H460 cells; type: cell-based, human; details: NCI-H460, 72 h
Experimental: as §1, §2

[2] = tested on: non-cancerous lung fibroblast WI-26 VA4; assay: MTT assay on WI-26 VA4 cells (non-specific cytotoxicity); type: cell-based, human; details: WI-26 VA4, 72 h
Experimental: as §1, §2

[3] = tested on: A549 human lung carcinoma cells; assay: MTT assay on A549 cells; type: cell-based; details: A549, 72 h
Experimental: as §1, §2

[4] = tested on: EGFR-mutant NCI-H1975 non-small cell lung carcinoma cells; assay: MTT assay on NCI-H1975 cells; type: cell-based, human; details: for IC50: NCI-H1975, 72 h, MTT
Experimental: as §1, §2

[5] = Molar conductivity in DMSO solution; type: physicochemical; details: DMSO solutions, 25 °C
Experimental: The preparation and characterization of starting pyridine-N-oxides as well as U1–12 are described previously. CuCl2, other reactants, and solvents were obtained from commercial sources. High-resolution mass-spectra (HRMS) were measured on Bruker Maxis HRMS-ESI-qTOF (Electrospray Ionization, ESI; Bruker, Billerica, MA, USA); a MeOH was used as the solvent. The instrument was operated at positive ion mode using m/z range of 50–3000. The capillary voltage of the ion source was set at –4500 V (ESI^+) and the capillary exit at +(70–150) V. The nebulizer gas pressure was 0.4 bar and drying gas flow was 4.0 L/min. The most intensive peak in the isotopic pattern is reported. Infrared spectra (4000–400 cm^–1) were recorded on a Shimadzu FTIR 8400S (Shimadzu, Kyoto, Japan) instrument in KBr pellets. The C, H, and N elemental analyses were carried out on a Leco TruSpec Micro CHNS analyzer (LECO, St. Joseph, MI, USA). TGA was performed on a ca. 2 mg samples of Cu(II) complexes by using a Netzsch TG 209 F1 Libra thermal analyzer (Netzsch, Selb, Germany). The samples were dried under a vacuum at 50 °C before heating from 40 to 450 °C at a heating rate of 10 K min^–1. A flow rate of 10 mL min^–1 of dry argon was used to purge the samples. Molar conductivity was measured with an Elico digital conductivity bridge model CM-88, using a freshly prepared DMSO solution of the complexes.

NCI-H1975 cells [6] = assay: Cell cycle analysis by flow cytometry; type: cell-based, human; details: NCI-H1975, 10, 20, and 35 μM, 48 h
Experimental: For the cell cycle analysis, the cells (1 × 10^6 per well) were placed at 6-well culture plates (Eppendorf, Germany) and allowed to grow overnight. After the medium was replaced with solution tested compounds (10, 20, or 35 μM). The exposed cells were placed at 37 °C in a 5% CO2 incubator for 48 h. After the completion of incubations, cells were harvested by trypsinization, washed with PBS, centrifuged, fixed with 70% ethanol and incubated for 7 h at –20 °C. An aliquot of the pellet (200 µL) was washed with PBS, stained with 200 µL of the Guava Cell Cycle Reagent (Merck, Kenilworth, NJ, USA), and incubated for 30 min at room temperature in the dark. The cell cycle distribution was analyzed by flow cytometry on a CytoFlex (Beckham Coulter, Brea, CA, USA) and CytExpert 2.1 program.

NCI-H1975 cells [7] = assay: Annexin V-FITC/PI double staining apoptosis assay; type: cell-based, human; details: NCI-H1975, 50 μM, 48-h incubation
Experimental: For the detection of apoptosis, the cells were placed at 6-well culture plates (Eppendorf, Germany) and allowed to grow overnight. After the cells reached subconfluency, the medium was replaced with tested compounds (25 or 50 μM). The exposed cells were placed at 37 °C in a 5% CO2 incubator for 24 or 48 h. The cultured cells were washed twice with PBS and resuspended in 1× binding buffer (AnnexinV-FITC kit, Invitrogen, Waltham, MA, USA) at a concentration 1 × 10^6 mL^−1. Annexin FITC (5 μL) and propidium iodide (PI, 2 μL) were added to 100 μL of the cell suspension and incubated for 15 min at room temperature (25 °C) in the dark. After incubation, 400 μL of 1× binding buffer was added to each tube and the stained cells were analyzed within 1 h using CytoFlex (Beckman Coulter, Brea, CA, USA) and CytExpert 2.1 program. Since the AnnexinV-FITC staining precedes the loss of membrane integrity that accompanies the later stage identified by PI, Annexin FITC positive, PI negative indicates early apoptosis, while the viable cells are Annexin V FITC negative, PI negative. The cells that are in late apoptosis or dead are both Annexin V FITC and PI positive.

Structure (SMILES) | viability at 72 h, 10 µM (MTT assay on A549 cells) | viability at 72 h, 100 µM (MTT assay on A549 cells) | IC50 [1] | IC50 [2] | IC50 [3] | IC50 [4] | further results
CN(C)C(=O)Nc1ccccn1 [Complex U1] | 100 ± 18% | 86.5 ± 7.5% | – | – | – | – | –
Cc1ccnc(NC(=O)N(C)C)c1 [Complex U2] | 102 ± 2.7% | 98.7 ± 3.8% | – | – | – | – | –
CN(C)C(=O)Nc1cc([N+](=O)[O-])ccn1 [Complex U3] | 95.5 ± 3.3% | 91.6 ± 4.3% | – | – | – | – | –
CN(C)C(=O)Nc1cc(C#N)ccn1 [Complex U4] | 94.2 ± 6.7% | 89 ± 5.1% | – | – | – | – | –
Cc1nc(-c2ccnc(NC(=O)N(C)C)c2)no1 [Complex U5] | 101 ± 5.5% | 90.2 ± 8.7% | – | – | – | – | –
Cc1nnc(-c2ccnc(NC(=O)N(C)C)c2)o1 [Complex U6] | 94.5 ± 7.1% | 89.9 ± 2.4% | – | – | – | – | –
O=C(Nc1ccccn1)N1CCCC1 [Complex U7] | 103 ± 2.8% | 99.8 ± 5.7% | – | – | – | – | –
O=C(Nc1ccccn1)N1CCCCC1 [Complex U8] | 100 ± 9.4% | 97.2 ± 6.1% | – | – | – | – | –
Cc1ccnc(NC(=O)N2CCCCC2)c1 [Complex U9] | 103 ± 6.3% | 98.3 ± 8.1% | – | – | – | – | –
COc1ccnc(NC(=O)N2CCCCC2)c1 [Complex U10] | 102 ± 5.2% | 99.5 ± 8.1% | – | – | – | – | –
O=C(Nc1cc([N+](=O)[O-])ccn1)N1CCCCC1 [Complex U11] | 105 ± 6.7% | 94.3 ± 9% | – | – | – | – | –
Cc1ccnc(NC(=O)N2CCOCC2)c1 [Complex U12] | 97.4 ± 5.5% | 85.4 ± 7.8% | – | – | – | – | –
CN(C)C(=O)Nc1ccccn1.CN(C)C(=O)Nc1ccccn1.[Cl-].[Cl-].[Cu+2] [[Cu(U1)2Cl]^+[Cl]^−] | – | – | 120 ± 18.4 µM | 108 ± 27.5 µM | 107 ± 15.1 µM | 65.3 ± 10.9 µM | –
Cc1ccnc(NC(=O)N(C)C)c1.Cc1ccnc(NC(=O)N(C)C)c1.[Cl-].[Cl-].[Cu+2] [[Cu(U2)2Cl]^+[Cl]^−] | – | – | 122 ± 15.3 µM | 101 ± 15.1 µM | 94.5 ± 14.1 µM | 65.4 ± 8.6 µM | Molar conductivity [5]: 24.8 Ω^−1·cm^2·mol^−1
CN(C)C(=O)Nc1cc([N+](=O)[O-])ccn1.CN(C)C(=O)Nc1cc([N+](=O)[O-])ccn1.[Cl-].[Cl-].[Cu+2] [[Cu(U3)2Cl2]] | – | – | 77.5 ± 6.4 µM | 81.6 ± 10.1 µM | 61.4 ± 6.52 µM | 39.6 ± 4.5 µM | cells trapped in the G2 phase (NCI-H1975 cells [6]): profound increase; number of cells in the G1 phase (NCI-H1975 cells [6]): remarkable drop; Molar conductivity [5]: 24.1 Ω^−1·cm^2·mol^−1; selectivity over the healthy human cells WI-26 VA4 ([4]; NCI-H1975 vs WI-26 VA4): the most selective; percentage of dead cells (NCI-H1975 cells [7]; control 0.28%): 2.87%; percent of Annexin V FITC-positive early apoptotic cells (NCI-H1975 cells [7]; control 5.25%): 16.30%; late apoptotic fraction in cell population (NCI-H1975 cells [7]; control 12.02%): 22.38%
CN(C)C(=O)Nc1cc(C#N)ccn1.CN(C)C(=O)Nc1cc(C#N)ccn1.[Cl-].[Cl-].[Cu+2] [[Cu(U4)2Cl]^+[Cl]^−] | – | – | 118 ± 13.4 µM | 109 ± 16.4 µM | 106 ± 12.2 µM | 68.3 ± 8.5 µM | Molar conductivity [5]: 25.2 Ω^−1·cm^2·mol^−1
Cc1nc(-c2ccnc(NC(=O)N(C)C)c2)no1.Cc1nc(-c2ccnc(NC(=O)N(C)C)c2)no1.[Cl-].[Cl-].[Cu+2] [[Cu(U5)2Cl]^+[Cl]^−] | – | – | 136 ± 12.5 µM | 118 ± 24.9 µM | 114 ± 14.5 µM | 71.2 ± 6.9 µM | –
Cc1nnc(-c2ccnc(NC(=O)N(C)C)c2)o1.Cc1nnc(-c2ccnc(NC(=O)N(C)C)c2)o1.[Cl-].[Cl-].[Cu+2] [[Cu(U6)2Cl]^+[Cl]^−] | – | – | 115 ± 26.3 µM | 105 ± 14.1 µM | 88.7 ± 12.7 µM | 63.8 ± 8.7 µM | –
O=C(Nc1ccccn1)N1CCCC1.O=C(Nc1ccccn1)N1CCCC1.[Cl-].[Cl-].[Cu+2] [[Cu(U7)2Cl]^+[Cl]^−] | – | – | 103 ± 13.1 µM | 100 ± 16.6 µM | 102 ± 15.8 µM | 66.7 ± 7.6 µM | –
O=C(Nc1ccccn1)N1CCCCC1.O=C(Nc1ccccn1)N1CCCCC1.[Cl-].[Cl-].[Cu+2] [[Cu(U8)2Cl]^+[Cl]^−] | – | – | 102 ± 17.3 µM | 111 ± 19.3 µM | 98.4 ± 11.1 µM | 64.4 ± 10.5 µM | –
Cc1ccnc(NC(=O)N2CCCCC2)c1.Cc1ccnc(NC(=O)N2CCCCC2)c1.[Cl-].[Cl-].[Cu+2] [[Cu(U9)2Cl]^+[Cl]^−] | – | – | 66.4 ± 5.7 µM | 113 ± 23.5 µM | 76.1 ± 8.86 µM | 61.6 ± 6 µM | –
O=C(Nc1cc([N+](=O)[O-])ccn1)N1CCCCC1.O=C(Nc1cc([N+](=O)[O-])ccn1)N1CCCCC1.[Cl-].[Cl-].[Cu+2] [[Cu(U11)2Cl2]] | – | – | 53.6 ± 4.7 µM | 62.4 ± 5.6 µM | 46 ± 4.98 µM | 33.4 ± 3.8 µM | Molar conductivity [5]: 21.7 Ω^−1·cm^2·mol^−1
Cc1ccnc(NC(=O)N2CCOCC2)c1.Cc1ccnc(NC(=O)N2CCOCC2)c1.[Cl-].[Cl-].[Cu+2] [[Cu(U12)2Cl]^+[Cl]^−] | – | – | 128 ± 19.5 µM | 109 ± 13.7 µM | 89.3 ± 6.67 µM | 70.2 ± 4.9 µM | –
